Measured values taken from ChEMBL document CHEMBL3885861, “Open TG-GATES”.

Species: Rattus norvegicus
Assay: Open TG-GATES - Regimen: Daily Repeat
Format: toxicity, organism-based, Sprague-Dawley
Design: regimen Daily Repeat, gender Male, age 6 weeks
Details: in vivo, po, 0 mg/kg, route gavage, dose level Control; for APTT / Bas / Eos / Fbg / Hb / Ht / Lym / MCH / MCHC / MCV / Mono / Neu / PT / Plat / RBC / Ret / WBC: tissue Blood; for KIDNEY_L / KIDNEY_R / KIDNEY_TOTAL: tissue Kidney; for LIVER: tissue Liver; for A/G / ALP / ALT / AST / BUN / CRE / Ca / Cl / DBIL / GLC / IP / K / LDH / Na / PL / RALB / TBIL / TC / TG / TP / gamma-GTP: tissue Plasma

Work on `O=C(O)c1ccccc1Nc1ccccc1` [FENAMIC ACID] yielded a TERMINAL_BW (72 h, time 3 day) of 237 g, an APTT (72 h, time 3 day) of 16.2 s and a Bas (72 h, time 3 day) of 0.4%. For the same molecule, the Eos (72 h, time 3 day) was 1.2%, the Fbg (72 h, time 3 day) was 270.2 mg/dL and the Hb (72 h, time 3 day) was 13.9 g/dL. The Ht (72 h, time 3 day) was 41.7%, the Lym (72 h, time 3 day) was 75.2% and the MCH (72 h, time 3 day) was 20.9 pg. For the same molecule, the MCHC (72 h, time 3 day) was 33.3%, the MCV (72 h, time 3 day) was 62.7 fL and the Mono (72 h, time 3 day) was 2.6%. The Neu (72 h, time 3 day) was 20.6%, the PT (72 h, time 3 day) was 14.3 s and the Plat (72 h, time 3 day) was 121.2 x10_4/uL. For the same molecule, the RBC (72 h, time 3 day) was 664.6 x10_4/ul, the Ret (72 h, time 3 day) was 6.5% and the WBC (72 h, time 3 day) was 95.3 x10_2/uL. The KIDNEY_L (72 h, time 3 day) was 1 g, the KIDNEY_R (72 h, time 3 day) was 1 g and the KIDNEY_TOTAL (72 h, time 3 day) was 2 g. It also gave an LIVER (72 h, time 3 day) of 10.9 g, an A/G (72 h, time 3 day) of 0.9 and an ALP (72 h, time 3 day) of 1663.4 IU/L. It also gave an ALT (72 h, time 3 day) of 35.4 IU/L, an AST (72 h, time 3 day) of 63.4 IU/L and a BUN (72 h, time 3 day) of 13.2 mg/dL. The CRE (72 h, time 3 day) was 0.2 mg/dL, the Ca (72 h, time 3 day) was 11.6 mg/dL and the Cl (72 h, time 3 day) was 106.8 meq/L. The DBIL (72 h, time 3 day) was 0.01 mg/dL, the GLC (72 h, time 3 day) was 185.8 mg/dL and the IP (72 h, time 3 day) was 7.2 mg/dL. The K (72 h, time 3 day) was 4.3 meq/L, the LDH (72 h, time 3 day) was 97.8 IU/L and the Na (72 h, time 3 day) was 143.8 meq/L. It also gave a PL (72 h, time 3 day) of 147.4 mg/dL, an RALB (72 h, time 3 day) of 2.7 g/dL and a TBIL (72 h, time 3 day) of 0.044 mg/dL. It also gave a TC (72 h, time 3 day) of 73.4 mg/dL, a TG (72 h, time 3 day) of 91.8 mg/dL and a TP (72 h, time 3 day) of 5.7 g/dL. For the same molecule, the gamma-GTP (72 h, time 3 day) was 1.6 IU/L, the TERMINAL_BW ([…], time 7 day) was 271.7 g and the TERMINAL_BW ([…], time 14 day) was 334.6 g. For the same molecule, the TERMINAL_BW ([…], time 28 day) was 425.8 g, the APTT ([…], time 7 day) was 16.2 s and the Bas ([…], time 7 day) was 0.8%. The Eos ([…], time 7 day) was 1%, the Fbg ([…], time 7 day) was 278.2 mg/dL and the Hb ([…], time 7 day) was 13.5 g/dL. The Ht ([…], time 7 day) was 40.3%, the Lym ([…], time 7 day) was 80.2% and the MCH ([…], time 7 day) was 20.5 pg. For the same molecule, the MCHC ([…], time 7 day) was 33.5%, the MCV ([…], time 7 day) was 61 fL and the Mono ([…], time 7 day) was 2.2%. It also gave a Neu ([…], time 7 day) of 15.6%, a PT ([…], time 7 day) of 13.8 s and a Plat ([…], time 7 day) of 118.4 x10_4/uL. The RBC ([…], time 7 day) was 661.2 x10_4/ul, the Ret ([…], time 7 day) was 5.4% and the WBC ([…], time 7 day) was 84.5 x10_2/uL. The APTT ([…], time 14 day) was 16.3 s, the Bas ([…], time 14 day) was 0.4% and the Eos ([…], time 14 day) was 1%. It also gave a Fbg ([…], time 14 day) of 296.2 mg/dL, a Hb ([…], time 14 day) of 14.5 g/dL and a Ht ([…], time 14 day) of 42.3%. It also gave a Lym ([…], time 14 day) of 82.6%, an MCH ([…], time 14 day) of 20.2 pg and an MCHC ([…], time 14 day) of 34.2%. For the same molecule, the MCV ([…], time 14 day) was 59.2 fL, the Mono ([…], time 14 day) was 1.8% and the Neu ([…], time 14 day) was 14.2%. For the same molecule, the PT ([…], time 14 day) was 14.1 s, the Plat ([…], time 14 day) was 112.2 x10_4/uL and the RBC ([…], time 14 day) was 714.8 x10_4/ul. The Ret ([…], time 14 day) was 4%, the WBC ([…], time 14 day) was 73.8 x10_2/uL and the APTT ([…], time 28 day) was 15.8 s. It also gave a Bas ([…], time 28 day) of 0.2%, an Eos ([…], time 28 day) of 1% and a Fbg ([…], time 28 day) of 296 mg/dL. For the same molecule, the Hb ([…], time 28 day) was 14.9 g/dL, the Ht ([…], time 28 day) was 43% and the Lym ([…], time 28 day) was 79.2%. The MCH ([…], time 28 day) was 19.4 pg, the MCHC ([…], time 28 day) was 34.6% and the MCV ([…], time 28 day) was 55.9 fL. The Mono ([…], time 28 day) was 1.6%, the Neu ([…], time 28 day) was 17.2% and the PT ([…], time 28 day) was 14.2 s. The Plat ([…], time 28 day) was 104.1 x10_4/uL, the RBC ([…], time 28 day) was 768.8 x10_4/ul and the Ret ([…], time 28 day) was 2.7%. It also gave a WBC ([…], time 28 day) of 92.6 x10_2/uL, a KIDNEY_L ([…], time 7 day) of 1.1 g and a KIDNEY_R ([…], time 7 day) of 1.1 g. The KIDNEY_TOTAL ([…], time 7 day) was 2.2 g, the KIDNEY_L ([…], time 14 day) was 1.3 g and the KIDNEY_R ([…], time 14 day) was 1.3 g. For the same molecule, the KIDNEY_TOTAL ([…], time 14 day) was 2.5 g, the KIDNEY_L ([…], time 28 day) was 1.5 g and the KIDNEY_R ([…], time 28 day) was 1.5 g. For the same molecule, the KIDNEY_TOTAL ([…], time 28 day) was 2.9 g, the LIVER ([…], time 7 day) was 12.7 g and the LIVER ([…], time 14 day) was 14.7 g. For the same molecule, the LIVER ([…], time 28 day) was 17 g, the A/G ([…], time 7 day) was 0.9 and the ALP ([…], time 7 day) was 1493 IU/L. It also gave an ALT ([…], time 7 day) of 38 IU/L, an AST ([…], time 7 day) of 68.4 IU/L and a BUN ([…], time 7 day) of 14.2 mg/dL. The CRE ([…], time 7 day) was 0.2 mg/dL, the Ca ([…], time 7 day) was 11.4 mg/dL and the Cl ([…], time 7 day) was 106.2 meq/L. For the same molecule, the DBIL ([…], time 7 day) was 0.01 mg/dL, the GLC ([…], time 7 day) was 190.4 mg/dL and the IP ([…], time 7 day) was 6.7 mg/dL. It also gave a K ([…], time 7 day) of 4.3 meq/L, an LDH ([…], time 7 day) of 105 IU/L and a Na ([…], time 7 day) of 143.2 meq/L. For the same molecule, the PL ([…], time 7 day) was 148.4 mg/dL, the RALB ([…], time 7 day) was 2.6 g/dL and the TBIL ([…], time 7 day) was 0.03 mg/dL. The TC ([…], time 7 day) was 73 mg/dL, the TG ([…], time 7 day) was 119.4 mg/dL and the TP ([…], time 7 day) was 5.7 g/dL. It also gave a gamma-GTP ([…], time 7 day) of 1 IU/L, an A/G ([…], time 14 day) of 0.8 and an ALP ([…], time 14 day) of 1698.4 IU/L. The ALT ([…], time 14 day) was 36 IU/L, the AST ([…], time 14 day) was 63.2 IU/L and the BUN ([…], time 14 day) was 13.8 mg/dL. For the same molecule, the CRE ([…], time 14 day) was 0.3 mg/dL, the Ca ([…], time 14 day) was 11.2 mg/dL and the Cl ([…], time 14 day) was 105.2 meq/L. It also gave a DBIL ([…], time 14 day) of 0.004 mg/dL, a GLC ([…], time 14 day) of 184 mg/dL and an IP ([…], time 14 day) of 7.1 mg/dL. The K ([…], time 14 day) was 4 meq/L, the LDH ([…], time 14 day) was 78.2 IU/L and the Na ([…], time 14 day) was 144 meq/L. The PL ([…], time 14 day) was 143.2 mg/dL, the RALB ([…], time 14 day) was 2.7 g/dL and the TBIL ([…], time 14 day) was 0.032 mg/dL. It also gave a TC ([…], time 14 day) of 68.6 mg/dL, a TG ([…], time 14 day) of 108.6 mg/dL and a TP ([…], time 14 day) of 5.9 g/dL. For the same molecule, the gamma-GTP ([…], time 14 day) was 1 IU/L, the A/G ([…], time 28 day) was 0.8 and the ALP ([…], time 28 day) was 1171.8 IU/L. The ALT ([…], time 28 day) was 32.4 IU/L, the AST ([…], time 28 day) was 58.2 IU/L and the BUN ([…], time 28 day) was 14.8 mg/dL. It also gave a CRE ([…], time 28 day) of 0.3 mg/dL, a Ca ([…], time 28 day) of 11.1 mg/dL and a Cl ([…], time 28 day) of 105.2 meq/L. It also gave a DBIL ([…], time 28 day) of 0.006 mg/dL, a GLC ([…], time 28 day) of 192.8 mg/dL and an IP ([…], time 28 day) of 6.9 mg/dL. For the same molecule, the K ([…], time 28 day) was 4 meq/L, the LDH ([…], time 28 day) was 104 IU/L and the Na ([…], time 28 day) was 144.4 meq/L. The PL ([…], time 28 day) was 133.8 mg/dL.
